In patent US8541588B2, “Sulfonamide derivatives” (Pfizer Limited, priority 2009, dated 2013):
pIC50: −log10 of the molar value.

Target: T1, Nav1.7 (or SCN9A) channel; HEK cells stably transfected with hSCN9A (Homo sapiens, UniProt Q15858)
T1 construct: expressed in transfected cells
Assay: Nav1.7 block, PatchXpress 7000 automated whole-cell voltage clamp, estimated IC50 (EIC50)
Type: cell-based
Conditions: PatchXpress platform; hSCN9A HEK cells held at V1/2 of inactivation; estimated IC50

T1 sequence (Q15858 whole entry): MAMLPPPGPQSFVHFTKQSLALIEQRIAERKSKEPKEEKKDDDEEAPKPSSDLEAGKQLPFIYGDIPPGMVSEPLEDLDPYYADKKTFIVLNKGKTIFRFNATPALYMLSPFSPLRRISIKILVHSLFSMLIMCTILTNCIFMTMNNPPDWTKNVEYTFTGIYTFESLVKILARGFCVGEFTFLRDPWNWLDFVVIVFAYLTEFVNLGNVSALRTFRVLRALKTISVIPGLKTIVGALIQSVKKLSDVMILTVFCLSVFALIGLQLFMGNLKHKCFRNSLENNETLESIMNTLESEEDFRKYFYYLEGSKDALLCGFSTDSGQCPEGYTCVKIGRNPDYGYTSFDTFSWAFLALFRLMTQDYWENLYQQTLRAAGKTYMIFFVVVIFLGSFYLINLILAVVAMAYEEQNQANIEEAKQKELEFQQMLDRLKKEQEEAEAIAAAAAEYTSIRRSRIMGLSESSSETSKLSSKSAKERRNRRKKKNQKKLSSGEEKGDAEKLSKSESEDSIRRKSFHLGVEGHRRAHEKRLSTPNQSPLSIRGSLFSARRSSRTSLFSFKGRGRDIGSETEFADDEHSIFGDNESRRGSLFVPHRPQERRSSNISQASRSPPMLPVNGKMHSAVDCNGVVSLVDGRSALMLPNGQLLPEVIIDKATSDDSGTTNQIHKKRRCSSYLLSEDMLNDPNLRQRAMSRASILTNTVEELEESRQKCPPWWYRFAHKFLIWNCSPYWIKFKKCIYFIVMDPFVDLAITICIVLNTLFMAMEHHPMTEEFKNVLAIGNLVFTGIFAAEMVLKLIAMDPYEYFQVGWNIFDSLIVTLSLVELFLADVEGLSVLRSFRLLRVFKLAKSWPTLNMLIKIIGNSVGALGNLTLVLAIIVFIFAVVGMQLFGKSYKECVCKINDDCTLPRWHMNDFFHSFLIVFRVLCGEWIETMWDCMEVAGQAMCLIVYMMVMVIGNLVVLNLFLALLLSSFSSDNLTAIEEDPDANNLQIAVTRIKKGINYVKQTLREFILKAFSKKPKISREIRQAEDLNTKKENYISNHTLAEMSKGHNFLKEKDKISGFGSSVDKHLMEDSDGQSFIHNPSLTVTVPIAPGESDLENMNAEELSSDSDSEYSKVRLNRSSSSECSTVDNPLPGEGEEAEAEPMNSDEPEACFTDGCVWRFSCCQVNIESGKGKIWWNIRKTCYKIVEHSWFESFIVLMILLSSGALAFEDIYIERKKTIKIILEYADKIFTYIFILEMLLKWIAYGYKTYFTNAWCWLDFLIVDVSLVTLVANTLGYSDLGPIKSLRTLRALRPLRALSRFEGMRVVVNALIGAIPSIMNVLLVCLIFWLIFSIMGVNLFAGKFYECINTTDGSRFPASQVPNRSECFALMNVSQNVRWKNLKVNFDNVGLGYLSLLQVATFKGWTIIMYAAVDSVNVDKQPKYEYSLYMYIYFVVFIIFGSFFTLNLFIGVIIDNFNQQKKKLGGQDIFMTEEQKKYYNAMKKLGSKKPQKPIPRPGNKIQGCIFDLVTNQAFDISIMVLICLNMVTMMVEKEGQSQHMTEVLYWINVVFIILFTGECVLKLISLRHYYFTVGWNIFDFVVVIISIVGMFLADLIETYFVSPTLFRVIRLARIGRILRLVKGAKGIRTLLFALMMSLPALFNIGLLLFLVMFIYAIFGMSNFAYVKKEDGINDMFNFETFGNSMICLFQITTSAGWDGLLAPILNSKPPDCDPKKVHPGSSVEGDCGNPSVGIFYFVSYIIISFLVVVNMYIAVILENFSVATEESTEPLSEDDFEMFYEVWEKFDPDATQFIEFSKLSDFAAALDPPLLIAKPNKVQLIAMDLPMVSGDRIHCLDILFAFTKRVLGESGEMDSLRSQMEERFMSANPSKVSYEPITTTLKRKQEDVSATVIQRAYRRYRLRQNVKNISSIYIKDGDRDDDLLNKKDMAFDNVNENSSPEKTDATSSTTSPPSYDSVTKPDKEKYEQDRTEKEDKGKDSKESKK

Row | pIC50 | IC50 | Compound
1 | 6.42 | – | N#Cc1cc(S(=O)(=O)Nc2ncns2)ccc1Oc1ccc(F)cc1-c1cc(F)ccc1F [Example 33, 3-cyano-N-1,2,4-thiadiazol-5-yl-4-[(2′,5,5′-trifluorobiphenyl-2-yl)oxy]benzenesulfonamide]
2 | 4.94 | – | O=S(=O)(Nc1nccs1)c1ccc(Oc2ccccc2C2CCCCO2)c(F)c1 (stereo not drawn) [Example 133, 3-fluoro-4-[2-(tetrahydro-2H-pyran-2-yl)phenoxy]-N-1,3-thiazol-2-ylbenzenesulfonamide]
3 | 6.17 | – | N#Cc1cc(S(=O)(=O)Nc2ncns2)ccc1Oc1cccc(F)c1-c1ccn[nH]1 [Example 89, 3-cyano-4-[3-fluoro-2-(2H-pyrazol-3-yl)-phenoxy]-N-[1,2,4]thiadiazol-5-yl-benzenesulfonamide]
4 | 6.92 | – | CC(C)(C)n1nc(C(F)(F)F)cc1-c1ccc(Oc2ccc(S(=O)(=O)Nc3ncc(F)s3)cc2C#N)cc1 [Example 281, 4-(4-(1-tert-butyl-3-(trifluoromethyl)-1H-pyrazol-5-yl)phenoxy)-3-cyano-N-(5-fluorothiazol-2-yl)benzenesulfonamide]
5 | 5.80 | – | N#Cc1cc(S(=O)(=O)Nc2ncns2)ccc1Oc1cc(Cc2ccc(Cl)cc2)nn1CC(N)=O [Example 93, 2-[3-(4-chlorobenzyl)-5-{2-cyano-4-[(1,2,4-thiadiazol-5-ylamino)sulfonyl]phenoxy}-1H-pyrazol-1-yl]acetamide]
6 | 6.48 | – | O=S(=O)(Nc1ncns1)c1ccc(Oc2ccccc2-c2ccccc2)c(C(F)(F)F)c1 [Example 205, 4-(biphenyl-2-yloxy)-N-1,2,4-thiadiazol-5-yl-3-(trifluoromethyl)benzenesulfonamide]
7 | 7.05 | – | CC(C)Oc1cccc(-c2ccccc2Oc2ccc(S(=O)(=O)Nc3ncns3)cc2C#N)c1 [Example 34, 3-cyano-4-[(3′-isopropoxybiphenyl-2-yl)oxy]-N-1,2,4-thiadiazol-5-ylbenzenesulfonamide]
8 | 7.52 | – | O=S(=O)(Nc1nccs1)c1ccc(Oc2ccc(Cl)cc2-c2ccnn2-c2ccccc2)c(F)c1 [Example 227, 4-(4-chloro-2-(1-phenyl-1H-pyrazol-5-yl)phenoxy)-3-fluoro-N-(thiazol-2-yl)benzenesulfonamide]
9 | 7.15 | – | N#Cc1cc(S(=O)(=O)Nc2nccs2)ccc1Oc1ccc(F)cc1-c1cccc(CO)c1 [Example 161, 3-cyano-4-{[5-fluoro-3′-(hydroxymethyl)biphenyl-2-yl]oxy}-N-1,3-thiazol-2-ylbenzenesulfonamide]
10 | 4.41 | – | Cn1ncc(-c2ccccc2)c1Oc1ccc(S(=O)(=O)Nc2ncc(Cl)s2)cc1C#N [Example 138, N-(5-chloro-1,3-thiazol-2-yl)-3-cyano-4-[(1-methyl-4-phenyl-1H-pyrazol-5-yl)oxy]benzenesulfonamide]
11 | 6.26 | – | O=S(=O)(Nc1nccs1)c1ccc(Oc2ccccc2-c2ccccc2)cc1 [Example 276, 4-(biphenyl-2-yloxy)-N-thiazol-2-yl-benzenesulfonamide]
12 | – | >10000 nM | N#Cc1cc(S(=O)(=O)Nc2ncns2)ccc1Oc1nccnc1-c1ccccc1 [Example 20, 3-cyano-4-[(3-phenylpyrazin-2-yl)oxy]-N-1,2,4-thiadiazol-5-ylbenzenesulfonamide]
13 | 5.46 | – | Cn1cc(-c2ccccc2)c(Oc2ccc(S(=O)(=O)Nc3nccs3)cc2F)n1 [Example 233, 3-fluoro-4-(1-methyl-4-phenyl-1H-pyrazol-3-yloxy)-N-(thiazol-2-yl)benzenesulfonamide]
14 | 6.37 | – | O=S(=O)(Nc1nccs1)c1ccc(Oc2ccc(F)cc2-c2ccnn2CC(F)(F)F)c(F)c1 [Example 225, 3-fluoro-4-(4-fluoro-2-(1-(2,2,2-trifluoroethyl)-1H-pyrazol-5-yl)phenoxy)-N-(thiazol-2-yl)benzenesulfonamide]
15 | 7.70 | – | Cn1nccc1-c1cc(Cl)ccc1Oc1ccc(S(=O)(=O)Nc2nccs2)cc1F [Example 219, 4-(4-chloro-2-(1-methyl-1H-pyrazol-5-yl)phenoxy)-3-fluoro-N-(thiazol-2-yl)benzenesulfonamide]
16 | 5.60 | – | O=S(=O)(Nc1nncs1)c1ccc(Oc2ccccc2-c2ccccc2)c(F)c1 [Example 251, 4-(biphenyl-2-yloxy)-3-fluoro-N-(1,3,4-thiadiazol-2-yl)benzenesulfonamide]

Same assay, conditions: estimated IC50; hSCN9A HEK cells, PatchXpress platform; Examples 283-814

Row | pIC50 | IC50 | Compound
17 | 8.77 | – | O=S(=O)(Nc1ncns1)c1ccc(Oc2ccc(Cl)cc2-c2cn[nH]c2)c(Cl)c1 [Example 724, 3-chloro-4-[4-chloro-2-(1H-pyrazol-4-yl)phenoxy]-N-1,2,4-thiadiazol-5-ylbenzenesulfonamide]
18 | 6.77 | – | CC(C)(C)n1nccc1-c1cc(F)ccc1Oc1ccc(S(=O)(=O)Nc2ncns2)cc1Cl [Example 476, 4-[2-(1-tert-butyl-1H-pyrazol-5-yl)-4-fluorophenoxy]-3-chloro-N-1,2,4-thiadiazol-5-ylbenzenesulfonamide]
19 | 6.00 | – | Cn1ccnc1-c1cc(Cl)ccc1Oc1ccc(S(=O)(=O)Nc2nccs2)cc1C#N [Example 651, 4-[4-chloro-2-(1-methyl-1H-imidazol-2-yl)phenoxy]-3-cyano-N-1,3-thiazol-2-ylbenzenesulfonamide]
20 | 7.17 | – | N#Cc1cc(S(=O)(=O)Nc2ncns2)ccc1Oc1ccccc1-c1cn[nH]c1 [Example 385, 4-(2-(1H-pyrazol-4-yl)phenoxy)-3-cyano-N-(1,2,4-thiadiazol-5-yl)benzenesulfonamide]
21 | 5.59 | – | N#Cc1cc(S(=O)(=O)Nc2nccs2)ccc1Oc1ccc(Cn2cccn2)cc1F [Example 642, 3-cyano-4-[2-fluoro-4-(1H-pyrazol-1-ylmethyl)phenoxy]-N-1,3-azol-2-ylbenzenesulfonamide]
22 | 5.29 | – | COc1cc(-c2cc(F)ccc2Oc2cc(F)c(S(=O)(=O)Nc3cscn3)cc2Cl)n(C)n1 [Example 688, 5-Chloro-2-fluoro-4-[4-fluoro-2-(3-methoxy-1-methyl-1H-pyrazol-5-yl)-phenoxy]-N-1,3-thiazol-4-yl-benzenesulfonamide]
23 | 5.00 | – | Cc1cc(-c2ccccc2Oc2ccc(S(=O)(=O)Nc3ccc(F)cn3)cc2C#N)sn1 [Example 571, 3-cyano-N-(5-fluoropyridin-2-yl)-4-[2-(3-methylisothiazol-5-yl)phenoxy]benzenesulfonamide]
24 | 7.70 | – | Cc1cc(-c2cc(C(F)(F)F)ccc2Oc2ccc(S(=O)(=O)Nc3ncns3)cc2C#N)ccn1 [Example 508, 3-cyano-4-[2-(2-methylpyridin-4-yl)-4-(trifluoromethyl)phenoxy]-N-1,2,4-thiadiazol-5-ylbenzenesulfonamide]
25 | 6.68 | – | Cn1nc(C(F)(F)F)cc1-c1ccc(F)c(Oc2ccc(S(=O)(=O)Nc3nccs3)cc2C#N)c1 [Example 779, 3-cyano-4-{2-fluoro-5-[1-methyl-3-(trifluoromethyl)-1H-pyrazol-5-yl]phenoxy}-N-1,3-thiazol-2-ylbenzenesulfonamide]
26 | – | >300 nM | O=S(=O)(Nc1cscn1)c1cc(Cl)c(Oc2ccc(C(F)(F)F)cc2-c2cncc(CO)c2)cc1F [Example 689, 5-Chloro-2-fluoro-4-{2-[5-(hydroxymethyl)pyridin-3-yl]-4-(trifluoromethyl)phenoxy}-N-1,3-thiazol-4-ylbenzenesulfonamide]
27 | 6.32 | – | Cn1nccc1-c1cc(F)ccc1Oc1cc(F)c(S(=O)(=O)Nc2csnn2)cc1Cl [Example 364, 5-chloro-2-fluoro-4-(4-fluoro-2-(1-methyl-1H-pyrazol-5-yl)phenoxy)-N-(1,2,3-thiadiazol-4-yl)benzenesulfonamide]
28 | 6.77 | – | O=S(=O)(Nc1nncs1)c1cc(Cl)c(Oc2ccc(Cl)cc2-c2ccnn2CCO)cc1F [Example 748, 5-chloro-4-{4-chloro-2-[1-(2-hydroxyethyl)-1H-pyrazol-5-yl]phenoxy}-2-fluoro-N-1,3,4-thiadiazol-2-ylbenzenesulfonamide]
29 | 4.47 | – | CCn1nc(C(F)(F)F)cc1-c1ccc(Oc2ccc(S(=O)(=O)Nc3ccc(C(F)(F)F)cn3)cc2C#N)cc1 [Example 340, 3-cyano-4-{4-[1-ethyl-3-(trifluoromethyl)-1H-pyrazol-5-yl]phenoxy}-N-[5-(trifluoromethyl)pyridin-2-yl]benzenesulfonamide]
30 | 5.66 | – | N#Cc1cc(S(=O)(=O)Nc2nccs2)ccc1Oc1ccc(Cl)c(Cn2cncn2)c1 [Example 336, 4-[4-chloro-3-(1H-1,2,4-triazol-1-ylmethyl)phenoxy]-3-cyano-N-1,3-thiazol-2-ylbenzenesulfonamide]
31 | 6.92 | – | Cc1cc(S(=O)(=O)Nc2cscn2)c(F)cc1Oc1ccc(F)cc1-c1ccnn1C [Example 626, 2-fluoro-4-[4-fluoro-2-(1-methyl-1H-pyrazol-5-yl)phenoxy]-5-methyl-N-1,3-thiazol-4-ylbenzenesulfonamide]

Same assay, conditions: estimated IC50; hSCN9A HEK cells, PatchXpress platform; Examples 815-1040

Row | pIC50 | Compound
32 | 9.15 | N#Cc1cc(S(=O)(=O)Nc2ncns2)ccc1Oc1ccc(Cl)cc1-c1ccnc(N2CCNCC2)n1 [Example 1030, 4-[4-Chloro-2-(2-piperazin-1-ylpyrimidin-4-yl)phenoxy]-3-cyano-N-1,2,4-thiadiazol-5-ylbenzenesulfonamide]
33 | 8.40 | N#Cc1cc(S(=O)(=O)Nc2ncns2)ccc1Oc1ccc(C(F)(F)F)cc1-c1ccncc1 [Example 960, 3-cyano-4-[2-pyridin-4-yl-4-(trifluoromethyl)phenoxy]-N-1,2,4-thiadiazol-5-ylbenzenesulfonamide]
34 | 7.12 | O=S(=O)(Nc1nncs1)c1cc(Cl)c(Oc2ccc(OC(F)(F)F)cc2-c2ccnnc2)cc1F [Example 932, 5-chloro-2-fluoro-4-[2-pyridazin-4-yl-4-(trifluoromethoxy)phenoxy]-N-1,3,4-thiadiazol-2-ylbenzenesulfonamide]
35 | 6.64 | Nc1cc(-c2cc(Cl)ccc2Oc2cc(F)c(S(=O)(=O)Nc3nncs3)cc2F)ccn1 [Example 820, 4-[2-(2-aminopyridin-4-yl)-4-chlorophenoxy]-2,5-difluoro-N-1,3,4-thiadiazol-2-ylbenzenesulfonamide]
36 | 8.64 | N#Cc1cc(S(=O)(=O)Nc2ncns2)ccc1Oc1ccc(Cl)cc1-c1ccnc(NC2CCC2)c1 [Example 902, 4-{4-chloro-2-[2-(cyclobutylamino)pyridin-4-yl]phenoxy}-3-cyano-N-1,2,4-thiadiazol-5-ylbenzenesulfonamide]
